For assay [1], the system named is myoblast cell line C2C12. The experiment in a line: Western blot of total MHC and MuRF-1 in dexamethasone-induced cell model. It is filed as cell-based, mouse. The note with it: C2C12 myotubes, 0.5 or 1 μM demethylzeylasteral with 100 μM dexamethasone, 48 hours, western blot (FIG. 5). As for the experimental part: Specifically, myoblast cell line C2C12 from mouse were seeded in 6 cm dishes and incubated for 72 hours.

Assay [2] has as its system myoblast cell line C2C12. The experiment in a line: Myocyte differentiation in dexamethasone-induced cell model (total MHC immunofluorescence and DAPI staining). In kind it is cell-based, mouse. The note with it: C2C12 myotubes, 0.5 or 1 μM demethylzeylasteral with 100 μM dexamethasone. Here is the method: dexamethasone-induced cell model, the following experiments were performed. Specifically, myoblast cell line C2C12 from mouse were seeded in 6 cm dishes and incubated for 72 hours. Then, the media were replaced to differentiation media to differentiate myoblasts into myotubes for 48 hours. After myotubes were formed, they were teated with 100 μM dexamethasone and 0.5, or 1 μM demethylzeylasteral for 72 hours while replacing the differentiation media every 24 hours. The differentiation media were suctioned off, and the dishes in which the cells were incubated were washed three times with PBS. Then, the cells were fixed with 4% formaldehyde, permeabilized with PBS containing 0.1% Triton-X 100 for 10 minutes, and blocked with PBS containing 3% bovine serum albumin for 1 hour. The cells were treated with total MHC antibodies, a biomarker for myocyte differentiation, followed by Alexa 488-conjugated secondary antibodies, and teated with DAPI for staining nuclei. The ratio of MHC+ nuclei to the total number of nuclei was calculated and plotted as a differentiation index, and the total number of nuclei stained with DAPI was also counted and plotted.

On to `C[C@@]1(C(=O)O)CC[C@]2(C)CC[C@]3(C)C4=CC(=O)c5c(cc(O)c(O)c5C=O)[C@]4(C)CC[C@@]3(C)[C@@H]2C1` [demethylzeylasteral, (2R,4aS,6aR,6aS,14aS,14bR)-9-formyl-10,11-dihydroxy-2,4a,6a,6a,14a-pentamethyl-8-oxo-1,3,4,5,6,13,14,14b-octahydropicene-2-carboxylic acid], for which, in the assay on myoblast cell line C2C12 [1], the “expression of MuRF-1 (biomarker for muscle degradation)” value is reported as “significantly reduced expression” and the “expression of total MHC (biomarker for myocyte differentiation in late stage)” value is “significantly increased expression”. Further, the “myocyte differentiation index (total number of MHC+ nuclei divided by total number of nuclei)” value with myoblast cell line C2C12 [2] (72 hours (FIG. 3)) was “significantly increased and restored”. Further, in the assay on myoblast cell line C2C12 [2] (72 hours (FIG. 4)), the “number of nuclei (DAPI staining)” value is recorded as “significantly increased”.

Values taken from patent publication US20250375401A1, “PHARMACEUTICAL COMPOSITION CONTAINING DEMETHYLZEYLASTERAL FOR PREVENTION OR TREATMENT OF DISEASES CAUSED BY MUSCLE LOSS” (SEOUL NATIONAL UNIVERSITY R&DB FOUNDATION, priority 2022, published 2025).
